This note sets out measurements from patent US7449463B2, “Morpholinyl containing benzimidazoles as inhibitors of respiratory syncytial virus replication” (Tibotec Pharmaceuticals Ltd., priority 2003, dated 2008).

Each structure is given as a SMILES string. pEC50: −log10 of the molar value.

Series [1] concerns Respiratory Syncytial Virus. Description: microbe, parasite or virus in culture. It counts as cell-based. Particulars: human respiratory syncytial virus. A digest of the protocol:
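HeLa cells infected with ~100 TCID50 RSV in Eagle's Basal Medium with 5% FCS, five-fold compound dilutions, 37° C, 5% CO2 for 7 days. Viability by MTT (A540 minus A690); EC50 for protection against cytopathic effect and CC50 from mock-infected wells, SI = CC50/EC50.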

Where [2] appears, read: 168 h, RSV-infected HeLa cells, MTT readout seven days after infection, −log of EC50 in molar units.
Setting [3] is: pEC50 (−log of EC50 when expressed in molar units), protection against RSV cytopathology.

Consider `CCOC(=O)CCCN(Cc1ccc2nc(NCCCN3CCOCC3)n(Cc3nc(C)ccc3O)c2c1)c1cc(C)cc(C)c1` [Compound 71, 4-{(3,5-dimethyl-phenyl)-[3-(3-hydroxy-6-methyl-pyridin-2-ylmethyl)-2-(3-morpholin-4-yl-propylamino)-3H-benzoimidazol-5-ylmethyl]-amino}-butyric acid ethyl ester], for which the melting point was determined as 130 °C. Besides, the pEC50 in series [1] (setting [2]) was 8.60.

For `Cc1ccc(O)c(Cn2c(NCCCN3CCOCC3)nc3ccc(Cc4c(C)cc(NCCO)cc4C)cc32)n1` [Compound 143, 2-[6-[4-(2-hydroxy-ethylamino)-2,6-dimethylbenzyl]-2-(3-morpholin-4-yl-propylamino)-benzoimidazol-1-ylmethyl]-6-methyl-pyridin-3-ol], the melting point was determined as 162 °C. Also, the negative logarithm of the EC50 (pEC50) in series [1] (setting [2]) is 8.00.

Consider `CCn1ncc(Cc2ccc3nc(NCCCN4CCOCC4)n(Cc4nc(C)ccc4O)c3c2)c1NCCO` [Compound 152], for which the melting point stood at 168 °C. This compound gave a negative logarithm of the EC50 (pEC50) in series [1] (setting [2]) of 8.10.

Regarding `Cc1ccc2c(c1)N(Cc1ccc3nc(NCCCN4CCOCC4)n(Cc4nc(C)ccc4O)c3c1)CC2` [Compound 153], the melting point worked out at 212 °C. This compound showed a pEC50 in series [1] (setting [2]) of 7.30.

For the compound `Cc1cc(C)c2nc(NCCCN3CCOCC3)n(Cc3nc(C)ccc3O)c2c1` [Compound 154, 2-[4,6-dimethyl-2-(3-morpholin-4-yl-propylamino)-benzoimidazol-1-yl-methyl]-6-methyl-pyridin-3-ol], the melting point is 228 °C. The compound also showed a negative-log EC50 (pEC50) in series [1] (setting [2]) of 6.90.

`Cc1cc(C)c2c(c1)nc(NCCCN1CCOCC1)n2Cc1nc(C)ccc1O` [Compound 156, 2-[5,7-dimethyl-2-(3-morpholin-4-yl-propylamino)-benzoimidazol-1-ylmethyl]-6-methyl-pyridin-3-ol] returned a melting point of 234 °C. Also, the pEC50 in series [1] (setting [2]) was 4.90.

`Cc1cccc(NC(=O)c2ccc3c(c2)nc(NCCCN2CCOCC2)n3Cc2nc(C)ccc2O)c1` [Compound 158] had a melting point of 170 °C. In series [1] (setting [2]), this compound showed a pEC50 of less than 4.00.

In turn, `Cc1cccc(NC(=O)c2ccc3nc(NCCCN4CCOCC4)n(Cc4nc(C)ccc4O)c3c2)c1` [Compound 159] returned a melting point of 168 °C. Besides, the negative logarithm of the EC50 (pEC50) in series [1] (setting [2]) is 4.70.

Regarding `Cc1cc(C)cc(NC(=O)c2ccc3nc(NCCCN4CCOCC4)n(Cc4nc(C)ccc4O)c3c2)c1` [Compound 160], the melting point turned out to be 172 °C. In series [1] (setting [2]), this compound had a negative logarithm of the EC50 (pEC50) of less than 5.00.

For `Cc1cc(C)c2nc(N(CC(C)N3CCOCC3)C3CCNCC3)n(Cc3nc(C)ccc3O)c2c1` (stereo not drawn) [Compound 161, 2-[4,6-dimethyl-2-(2-morpholin-4-ylpropyl-piperidin-4-ylamino)-benzoimidazol-1-ylmethyl]-6-methyl-pyridin-3-ol], the melting point was 223 °C. In addition, the negative-log EC50 (pEC50) in series [1] (setting [2]) is 8.60.

`Cc1cc(C)cc(NCc2ccc3nc(NC4CCNC(CCN5CCOCC5)C4)n(Cc4nc(C)ccc4O)c3c2)c1` (stereo not drawn) [Compound 163, 2-{6-[(3,5-dimethyl-phenylamino)-methyl]-2-[2-(2-morpholin-4-yl-ethyl)-piperidin-4-ylamino]-benzoimidazol-1-ylmethyl}-6-methyl-pyridin-3-ol] showed a melting point of 150 °C. For the same compound, the negative-log EC50 (pEC50) in series [1] (setting [2]) is 7.90.

`Cc1ccc(O)c(Cn2c(NC3CCNC(CCN4CCOCC4)C3)nc3ccc(CCc4ccccc4)cc32)n1` (stereo not drawn) [Compound 165, 6-methyl-2-{2-[2-(2-morpholin-4-yl-ethyl)-piperidin-4-ylamino]-6-phenethyl-benzoimidazol-1-ylmethyl}-pyridin-3-ol] returned a melting point of 159 °C. The same compound had a pEC50 in series [1] (setting [2]) of 6.90.

As for `Cc1ccc(O)c(Cn2c(NC3CCNC(CCN4CCOCC4)C3)nc3ccc(C=Cc4ccccc4)cc32)n1` (stereo not drawn) [Compound 169, 6-methyl-2-{2-[2-(2-morpholin-4-yl-ethyl)-piperidin-4-ylamino]-6-styryl-benzoimidazol-1-ylmethyl}-pyridin-3-ol], the melting point amounted to 224 °C. Besides, the pEC50 in series [1] (setting [2]) was 6.20.

`Cc1cc(C)c2nc(N(CCN3CCOCC3)C3CCNCC3)n(Cc3nc(C)ccc3O)c2c1` [Compound 170, 2-[4,6-dimethyl-2-(2-morpholin-4-ylethyl-piperidin-4-ylamino)-benzoimidazol-1-ylmethyl]-6-methyl-pyridin-3-ol] came in with a melting point of 237 °C. In series [1] (setting [2]), this compound gave a negative-log EC50 (pEC50) of 6.10.

`Cc1cc(C)cc(NCc2ccc3nc(NCC(O)CN4CCOCC4)n(Cc4nc(C)ccc4O)c3c2)c1` (stereo not drawn) [Compound 171, 2-[6-[(3,5-dimethyl-phenylamino)-methyl]-2-(2-hydroxy-3-morpholin-4-yl-propyl-amino)-benzoimidazol-1-ylmethyl]-6-methyl-pyridin-3-ol] came in with a melting point of 198 °C. The compound also gave a pEC50 in series [1] (setting [2]) of 8.60.

As to `Cc1cc(C)cc(NCc2ccc3nc(NCCCN4CC(C)OC(C)C4)n(Cc4nc(C)ccc4O)c3c2)c1` (stereo not drawn) [Compound 172, 2-{2-[3-(2,6-dimethyl-morpholin-4-yl)-propylamino]-6-[(3,5-dimethyl-phenylamino)-methyl]-benzoimidazol-1-ylmethyl}-6-methyl-pyridin-3-ol], the melting point amounted to 192 °C. Besides, the pEC50 in series [1] (setting [2]) is 7.80.

In the case of `Cc1cc(C)c2nc(NCCCN3CCOC(CC(N)=O)C3)n(Cc3nc(C)ccc3O)c2c1` (stereo not drawn) [Compound 191, 2-(4-{3-[1-(3-Hydroxy-6-methyl-pyridin-2-ylmethyl)-4,6-dimethyl-1H-benzoimidazol-2-ylamino]-propyl}-morpholin-2-yl)-acetamide], the melting point turned out to be 148 °C. The compound also gave a negative logarithm of the EC50 (pEC50) in series [1] (setting [2]) of 6.80.

With `Cc1ccc(CCO)c(NCc2ccc3nc(NCCCN4CCOCC4)n(Cc4ncccc4O)c3c2)c1` [Compound 192, 2-[6-{[2-(2-Hydroxy-ethyl)-5-methyl-phenylamino]-methyl}-2-(3-morpholin-4-yl-propylamino)-benzoimidazol-1-ylmethyl]-pyridin-3-ol], the melting point stood at 192 °C. This compound also showed a pEC50 in series [1] (setting [3]) of 9.30.

In turn, `Cc1ccc(CCO)c(NCc2ccc3nc(NCCCN4CCOCC4)n(C4CCCc5nc(C)c(C)nc54)c3c2)c1` (stereo not drawn) [Compound 193, 2-(2-{[3-(2,3-Dimethyl-5,6,7,8-tetrahydroquinoxalin-5-yl)-2-(3-morpholin-4-yl-propylamino)-3H-benzoimidazol-5-ylmethyl]-amino}-4-methyl-phenyl)-ethanol] registered a melting point of 162 °C. For the same compound, in series [1] (setting [3]), the pEC50 was 9.30.

Regarding `Cc1ccc(CCCO)c(NCc2ccc3nc(NCCCN4CCOCC4)n(Cc4cc(Br)ccc4O)c3c2)c1` [Compound 201, 4-Bromo-2-[6-{[2-(3-hydroxy-propyl)-5-methyl-phenylamino]-methyl}-2-(3-morpholin-4-yl-propylamino)-benzoimidazol-1-ylmethyl]-phenol], the melting point worked out at 134 °C. Also, the pEC50 in series [1] (setting [3]) was 9.30.

Regarding `Cc1cc(C)cc(N(CCCC(N)=O)Cc2ccc3nc(NCCCN4CCOCC4)n(C4CCCc5nc(C)c(C)nc54)c3c2)c1` (stereo not drawn) [Compound 213, 4-{(3,5-Dimethyl-phenyl)-[3-(2,3-dimethyl-5,6,7,8-tetrahydro-quinoxalin-5-yl)-2-(3-morpholin-4-yl-propylamino)-3H-benzoimidazol-5-ylmethyl]-amino}-butyramide], the melting point was determined as 109 °C. In addition, the negative-log EC50 (pEC50) in series [1] (setting [3]) is 8.80.

With `Cc1ccc(CCCO)c(NCc2ccc3nc(NCCCN4CCOCC4)n(Cc4cccc5c4ncn5C)c3c2)c1` [Compound 218, 3-(4-Methyl-2-{[3-(1-methyl-1H-benzoimidazol-4-ylmethyl)-2-(3-morpholin-4-yl-propylamino)-3H-benzoimidazol-5-ylmethyl]-amino}-phenyl)-propan-1-ol], the melting point amounted to 198 °C. Also, the negative-log EC50 (pEC50) in series [1] (setting [3]) is 8.60.

`COc1ccc(C)nc1Cn1c(NCCCN2CCOCC2)nc2ccc(CNc3cc(C)ccc3CCCO)cc21` [Compound 219, 3-(2-{[3-(3-Methoxy-6-methyl-pyridin-2-ylmethyl)-2-(3-morpholin-4-yl-propylamino)-3H-benzoimidazol-5-ylmethyl]-amino}-4-methyl-phenyl)-propan-1-ol] displayed a melting point of 132 °C. Moreover, in series [1] (setting [3]), the negative logarithm of the EC50 (pEC50) was 8.60.

`Cc1cc(C)cc(N(CCCC(N)=O)Cc2ccc3nc(NCCCN4CCOCC4)n(Cc4cccc5cccnc45)c3c2)c1` [Compound 223, 4-{(3,5-Dimethyl-phenyl)-[2-(3-morpholin-4-yl-propylamino)-3-quinolin-8-ylmethyl-3H-benzoimidazol-5-ylmethyl]-amino}-butyramide] yielded a melting point of 154 °C. This compound also showed a pEC50 in series [1] (setting [3]) of 8.50.

In turn, `Cc1cc(C)cc(N(CCCC(N)=O)Cc2ccc3nc(NCCCN4CCOCC4)n(Cc4cccc5c4ncn5C)c3c2)c1` [Compound 230, 4-{(3,5-Dimethyl-phenyl)-[3-(1-methyl-1H-benzoimidazol-4-ylmethyl)-2-(3-morpholin-4-yl-propylamino)-3H-benzoimidazol-5-ylmethyl]-amino}-butyramide] gave a melting point of 206 °C. In series [1] (setting [3]), this compound had a pEC50 of 8.40.

Compound `Cc1cc(C)cc(N(CCO)Cc2ccc3nc(NCCCN4CCOCC4)n(Cc4nc(C)c(C)nc4C)c3c2)c1` [Compound 233, 2-{(3,5-Dimethyl-phenyl)-[2-(3-morpholin-4-yl-propylamino)-3-(3,5,6-trimethyl-pyrazin-2-ylmethyl)-3H-benzoimidazol-5-ylmethyl]-amino}-ethanol] returned a melting point of 140 °C. For the same compound, in series [1] (setting [3]), the pEC50 is 8.30.

Take `Cc1ccc(CCCO)c(NCc2ccc3nc(NCCCN4CCOCC4)n(Cc4cccc5cccnc45)c3c2)c1` [Compound 234, 3-(4-Methyl-2-{[2-(3-morpholin-4-yl-propylamino)-3-quinolin-8-ylmethyl-3H-benzoimidazol-5-ylmethyl]-amino}-phenyl)-propan-1-ol]: the melting point was 165 °C. Moreover, the pEC50 in series [1] (setting [3]) was 8.30.
